Source: patent US20240366649A1, “4-ETHYNYL-3-HYDROXY-TETRAHYDROFURANYL-ADENINE PHOSPHORAMIDATES AND RELATED COMPOUNDS AND THEIR USE IN TREATING MEDICAL CONDITIONS” (ROME THERAPEUTICS, INC., priority 2021, published 2024)
Each block holds one compound with its values, some of them ahead of it.

Experiments:
[1] = tested on: IFN-β production in PBMCs; assay: Decitabine-stimulated human PBMC assay; assay type: cell-based; conditions: anti-CD3/anti-CD28, 10 μM decitabine, 5 days
Description: EasySep buffer (32 mL, Stem Cell, cat. #20144) was used to dilute 8 mL of LRSC buffy coat (from fresh Leukopak) with gentle mixing. The diluted buffy coat (20 mL) was transferred into each of two SepMate 50 tubes, and the tubes were filled with 15 mL of Lyphoprep (Stem Cell, ct. #07851) density gradient. The SepMate tubes were then centrifuged at 1200G for 10 minutes at room temperature with the brake on. The top layer of supernatant was collected in SepMate tubes by quickly pouring it into a new 50 mL conical tube. The PBMCs were washed with EasySep buffer ×2 by centrifuging at 300G for 5 minutes. The cells were resuspended in 30 mL of EasySep and centrifuged at 100G for 5 minutes with the brake off, and the platelets were removed. The cells were then resuspended in 6 mL of 1×RBC lysis buffer (InvitroGen) and incubated at 37° C. for 5 minutes. Then, 25 mL of EasySep buffer was mixed into the tube and it was centrifuged at 300G for 5 minutes. The cells were resuspended in 10 mL of EasySep buffer and the cells were then counted with Cellometer (AO/PI). The PBMCs were resuspended in RPMI1640 (ThermoFisher)+10% FBS (HyClone)+p/s at 3×10^6/mL. The PBMCs (100 μL, 300 k PBMCs) were then seeded in a 96-well flat bottom microplate (Corning) that had been precoated with 100 μL of anti-CD3 antibody (10 μg/mL in PBS, Biolegend) or PBS at 4° C., one day before the assay was commenced. […]

[2] = tested on: Ovarian cancer SW756 cells; assay: Cancer cell viability assay with 3D cell colonies (CellTiter-Glo), SW756; assay type: cell-based; conditions: SW756, 3D methylcellulose colonies, 7 days
Description: (§1) Cancer cell lines were cultured in the following media: • Ovarian cancer OVCAR-8 cells—RPMI media containing 10% FBS • Ovarian cancer SK-OV-3 cells—McCoy's 5a media containing 10% FBS • Ovarian cancer SW756 cells—L-15 (100% air)+10% FBS • Esophageal cancer TE-1 cells—RPMI-1640+10% FBS • Esophageal cancer KYSE-410 cells—RPMI-1640+5˜10% FBS • Esophageal cancer KYSE-70 cells—RPMI-1640+10% h.i.FBS. • Pharyngeal cancer FaDu cells—MEM+0.01 mM NEAA+10% FBS
(§2) Cell colony formation was tested using a 3D methylcellulose-based CellTiter-Glo (CTG) viability assay (Cat. No: G7573, Promega). Briefly, cells were inoculated into 96-well plates (at 1,500 cells per well) into a solution of 0.65% methylcellulose in growth media and incubated overnight at 37° C. in 5% CO2. The next day, serially diluted test compound (islatravir, 4′-ethynyl-2-fluoro-2′-deoxyadenosine) or positive control (cisplatin, Cat. No. 6J015A89, Qilu Pharma) were added at the indicated concentrations, and the cells were incubated for 7 days. On day seven, 100 μL of CTG reagent was added, and the plates were incubated at room temperature for 20 min. Luminescence was read on an Envision Multi Label Reader according to manufacturer's instructions. IC50 values were determined using the following calculation: […]

[3] = tested on: Pharyngeal cancer FaDu cells; assay: Cancer cell viability assay with 3D cell colonies (CellTiter-Glo), FaDu; assay type: cell-based; conditions: 3D methylcellulose colonies, 7 days
Description: as §1, §2

[4] = tested on: Ovarian cancer OVCAR-8 cells; assay: Cancer cell viability assay with 3D cell colonies (CellTiter-Glo), OVCAR-8; assay type: cell-based; conditions: OVCAR-8, 3D methylcellulose colonies, 7 days
Description: as §1, §2

[5] = tested on: Esophageal cancer KYSE-70 cells; assay: Cancer cell viability assay with 3D cell colonies (CellTiter-Glo), KYSE-70; assay type: cell-based; conditions: KYSE-70, 3D methylcellulose colonies, 7 days
Description: as §1, §2

[6] = tested on: Ovarian cancer SK-OV-3 cells; assay: Cancer cell viability assay with 3D cell colonies (CellTiter-Glo), SK-OV-3; assay type: cell-based; conditions: SK-OV-3, 3D methylcellulose colonies, 7 days
Description: as §1, §2

[7] = tested on: Esophageal cancer KYSE-410 cells; assay: Cancer cell viability assay with 3D cell colonies (CellTiter-Glo), KYSE-410; assay type: cell-based; conditions: KYSE-410, 3D methylcellulose colonies, 7 days
Description: as §1, §2

[8] = tested on: Esophageal cancer TE-1 cells; assay: Cancer cell viability assay with 3D cell colonies (CellTiter-Glo), TE-1; assay type: cell-based; conditions: TE-1, 3D methylcellulose colonies, 7 days
Description: as §1, §2

[9] = target: LINE1 reverse transcriptase (Homo sapiens, UniProt O00370); assay: Homogeneous time-resolved fluorescence (HTRF) LINE1 RT assay; assay type: biochemical; parameters: recombinant MBP-tagged LINE1 protein (238-1061); MBP; made in house; conditions: recombinant MBP-tagged LINE1 protein (238-1061), read-out: IC50 for inhibiting LINE1 reverse transcriptase
Description: The LINE1 reverse transcriptase homogeneous time-resolved fluorescence (HTRF) assay was performed with recombinant MBP-tagged LINE1 protein (238-1061) (generated and purified according to procedures in Dai L. et al. BMC Biochemistry 2011; 12:18) in a 384-well format. Test compound was serially diluted in DMSO and further diluted in the assay buffer (50 mM Tris-HCl, 50 mM KCl, 10 mM MgCl2, 10 mM DTT, pH 8.1) to achieve a final DMSO concentration of 1%. The serially diluted compound was mixed with 64 ng/well of LINE1 enzyme, 5 nM of pre-annealed template/biotin-primer pair (synthesized at Generay Biotechnology), 10 nM of Fluorescein-12-dATP fluorescent probe (Perkin Elmer), and 1 μM dGTP/dCTP/dTTP (Thermo Fisher Scientific) in the assay buffer. The template/biotin-primer sequences were as follows:
(§3) After incubating at 25° C. for 60 minutes, the detection reagent (20 mM EDTA with streptavidin-terbium cryptate, Cisbio Bioassay) in the PPI buffer (Cisbio Bioassay) was added, and the mixture was incubated at 25° C. for 30 minutes. At the end of the incubation, fluorescence was read at ex/em=337/485 nm and ex/em=337/520 nm on an Envision 2104 plate reader (Perkin Elmer). The fluorescence ratio at 520/485 nm was used for the calculation. […] The IC50 was calculated by fitting the compound dose inhibition curve with a 4-parameter non-linear regression equation.

[10] = target: T1, HERV-K reverse transcriptase (Homo sapiens, UniProt V9H0F6); assay: Homogeneous time-resolved fluorescence (HTRF) HERV-K RT assay; assay type: biochemical; conditions: HERV-K reverse transcriptase (2-596)-8His protein, read-out: IC50 for inhibiting HERV-K reverse transcriptase
T1 construct: fused on or other part: C-terminal 8His tag
T1 sequence (V9H0F6 entry or part of it): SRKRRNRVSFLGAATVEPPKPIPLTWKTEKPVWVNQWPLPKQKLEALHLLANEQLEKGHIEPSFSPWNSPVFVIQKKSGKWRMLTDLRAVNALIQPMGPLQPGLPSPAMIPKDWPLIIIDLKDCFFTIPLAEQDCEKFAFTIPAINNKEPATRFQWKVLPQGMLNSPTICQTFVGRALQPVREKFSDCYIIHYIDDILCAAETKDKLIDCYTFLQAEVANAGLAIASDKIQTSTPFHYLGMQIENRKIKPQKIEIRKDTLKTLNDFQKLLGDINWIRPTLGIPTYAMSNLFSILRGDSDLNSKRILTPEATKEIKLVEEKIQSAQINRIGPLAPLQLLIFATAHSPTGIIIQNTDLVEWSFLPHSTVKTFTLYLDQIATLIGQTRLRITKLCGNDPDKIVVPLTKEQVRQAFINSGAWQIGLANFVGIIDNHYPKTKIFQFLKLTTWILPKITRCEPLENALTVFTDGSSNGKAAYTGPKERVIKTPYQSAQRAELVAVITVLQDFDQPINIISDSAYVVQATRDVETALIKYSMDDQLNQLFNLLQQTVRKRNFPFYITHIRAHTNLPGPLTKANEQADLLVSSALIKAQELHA
Description: The HERV-K reverse transcriptase homogeneous time-resolved fluorescence (HTRF) assay was performed in a 384-well format with HERV-K reverse transcriptase (2-596)-8His protein. Baculoviruses were created using Bac-to-Bac technology (Invitrogen). pFastBac donor plasmids containing HERV-K reverse transcriptase sequence (NCBI GenBank number AAC63291.1, J. Virology (1999) Vol. 73, No. 3, pp. 2365-2375) were transformed into DH10 Bac cells following the manufacturer's instructions. Recombinant bacmids were then isolated clonally and transfected into SF9 cells with lipofectin. HERV-K reverse transcriptase was expressed in the SF9 insect cells and then purified using immobilized metal affinity chromatography (IMAC) followed by size-exclusion chromatography (SEC). […]
as §3, with “30” for “60”, “20” for “(20”, “cryptate (Cisbio” for “cryptate, Cisbio”, “60” for “30”

Structure (SMILES): C#C[C@]1(CO)O[C@@H](n2cnc3c(N)nc(Cl)nc32)C[C@@H]1O [4′-ethynyl-2-chloro-2′-deoxyadenosine]
production of IFN-β [1]: activated production of IFN-β

Structure (SMILES): N.N.[Cl][Pt][Cl] [Cisplatin, cisplatin]
IC50 [2]: ≤ 10000 nM
IC50 [3]: ≤ 10000 nM
IC50 [4]: ≤ 10000 nM
IC50 [5]: ≤ 10000 nM
IC50 [6]: ≤ 10000 nM
IC50 [7]: > 30000 nM
IC50 [8]: ≤ 10000 nM

Structure (SMILES): C#C[C@]1(COP(=O)(O)OP(=O)(O)OP(=O)(O)O)O[C@@H](n2cnc3c(N)nc(F)nc32)C[C@@H]1O [drawing 277]
IC50 [9]: 23 nM

Other lines, results leading:

IC50 [9]: 20 nM
Structure (SMILES): C#C[C@]1(COP(=O)(O)OP(=O)(O)OP(=O)(O)O)O[C@@H](n2cnc3c(N)nc(Cl)nc32)C[C@@H]1O [drawing 278]

IC50 [10]: 17.8 nM
Structure (SMILES): C#C[C@]1(COP(=O)(O)OP(=O)(O)OP(=O)(O)O)O[C@@H](n2cnc3c(N)nc(F)nc32)C[C@@H]1O [drawing 279]

IC50 [10]: 310 nM
Structure (SMILES): C#C[C@]1(COP(=O)(O)OP(=O)(O)OP(=O)(O)O)O[C@@H](n2cnc3c(N)nc(Cl)nc32)C[C@@H]1O [drawing 280]
